# Active and inactive are the calls of the source. The calls are words filed in the database; no cut-off is given here.
# Columns and labels:
# [1] = system: Hepatitis B virus; assay: Antiviral activity against Hepatitis B virus in human HepAD38 cells assessed as inhibition of extracellular viral replication at 10 uM incubated for 2 days followed by 3 day incubation with fresh medium containing compound for 72 hrs by qRT-PCR analysis; format: functional
# [2] = Selectivity index, ratio of CC50 for human HepAD38 cells to EC50 for Hepatitis B virus; format: toxicity, cell-based; conditions: read-out: Ratio CC50/EC50
# [3] = system: Hepatitis B virus; assay: Antiviral activity against Hepatitis B virus in human HepAD38 cells assessed as inhibition of extracellular viral replication incubated for 2 days followed by 3 day incubation with fresh medium containing compound for 72 hrs by qRT-PCR analysis; format: functional, organism-based
# [4] = Cytotoxicity against human HepAD38 cells after 7 days by MTT assay; format: cell-based
# [5] = system: Hepatitis B virus; assay: Antiviral activity against Hepatitis B virus in human HuH7 cells assessed as inhibition of intracellular viral replication at 2.5 and 25 uM after 48 hrs by qRT-PCR analysis; format: functional, organism-based; conditions: Huh-7
# [6] = system: Hepatitis B virus; assay: Antiviral activity against Hepatitis B virus in human HuH7 cells assessed as reduction in HBeAg secretion at 25 uM incubated for 2 days followed by 3 day incubation with fresh medium containing compound for 7 days by time-resolved fluoro-immunoassay; format: functional, organism-based; conditions: Huh-7
# [7] = system: Hepatitis B virus; assay: Antiviral activity against Hepatitis B virus in human HuH7 cells assessed as reduction in HBsAg secretion at 25 uM incubated for 2 days followed by 3 day incubation with fresh medium containing compound for 7 days by time-resolved fluoro-immunoassay; format: functional, organism-based; conditions: Huh-7
# [8] = system: Hepatitis B virus; assay: Effect on transcription level in Hepatitis B virus assessed as pgRNA level in human HuH7 cells after 48 hrs by qRT-PCR analysis; format: functional, organism-based; conditions: Huh-7
# [9] = system: Hepatitis B virus; assay: Antiviral activity against Hepatitis B virus in human HuH7 cells assessed as reduction in HBeAg secretion incubated for 2 days followed by 3 day incubation with fresh medium containing compound for 7 days by time-resolved fluoro-immunoassay; format: functional, organism-based; conditions: Huh-7
smiles,measurement,setting,value
Cc1cc(C)cc(Cc2nc(SCCOc3ccc([N+](=O)[O-])cc3)[nH]c(=O)c2I)c1,inhibition at 10 µM,[1],20%
O=c1[nH]c(SCCOc2ccc(Br)cc2)nc(Cn2nnc3ccccc32)c1I,inhibition at 10 µM,[1],31%
O=c1[nH]c(SCc2ccc(C(F)(F)F)cc2)nc(Cn2nnc3ccccc32)c1I,inhibition,[1],inactive
O=c1[nH]c(SCc2ccc(I)cc2)nc(Cn2nnc3ccccc32)c1I,inhibition at 10 µM,[1],34%
COc1ccc(Cc2nc(SCCOc3ccc(C)cc3)[nH]c(=O)c2I)cc1OC,inhibition at 10 µM,[1],49%
COc1ccc(Cc2nc(SC3CCCCCC3)[nH]c(=O)c2I)cc1OC,selectivity ratio,[2],2.4
same,EC50,[3],40.8 µM
same,CC50 at 168 h,[4],98 µM
same,inhibition at 10 µM,[1],31%
COc1cccc(CSc2nc(Cc3ccc(OC)c(OC)c3)c(I)c(=O)[nH]2)c1,inhibition,[1],inactive
O=c1[nH]c(SCCOc2ccc([N+](=O)[O-])cc2)nc(Cc2ccccc2)c1I,inhibition at 10 µM,[1],13%
COc1ccc(Cc2nc(SCc3cccc(Cl)c3)[nH]c(=O)c2I)cc1OC,selectivity ratio,[2],27.8
same,EC50,[3],4.28 µM
same,CC50 at 168 h,[4],119 µM
same,inhibition at 10 µM,[1],65%
N#Cc1ccc(CSc2nc(Cc3cc(F)cc(F)c3)c(I)c(=O)[nH]2)cc1,inhibition at 10 µM,[1],14%
Cc1cc(C)cc(Cc2nc(SCc3ccc([N+](=O)[O-])cc3)[nH]c(=O)c2I)c1,inhibition at 10 µM,[1],25%
COc1ccc(Cc2nc(SCCOc3ccc([N+](=O)[O-])cc3)[nH]c(=O)c2I)cc1OC,inhibition at 10 µM,[1],6%
COc1cc(CSc2nc(Cc3ccc(OC)c(OC)c3)c(I)c(=O)[nH]2)cc(OC)c1,inhibition at 10 µM,[1],41%
O=c1[nH]c(SCCOc2ccc([N+](=O)[O-])cc2)nc(Cn2nnc3ccccc32)c1I,selectivity ratio,[2],111
same,EC50,[3],0.469 µM
same,CC50 at 168 h,[4],52 µM
same,inhibition at 10 µM,[1],74%
same,Activity,[5],Active
same,Activity,[6],Active
same,Activity,[7],Active
same,Activity,[8],inactive
same,Activity,[9],Dose-dependent effect
COc1ccc(Cc2nc(SCc3ccc(C(F)(F)F)cc3)[nH]c(=O)c2I)cc1OC,inhibition at 10 µM,[1],54%
COc1ccc(Cc2nc(SCCOc3ccc(Br)cc3)[nH]c(=O)c2I)cc1OC,inhibition,[1],inactive
Nc1ccn([C@H]2CS[C@@H](CO)O2)c(=O)n1,selectivity ratio,[2],> 137
same,EC50,[3],0.731 µM
same,CC50 at 168 h,[4],> 100 µM
same,inhibition at 10 µM,[1],88%
Cc1ccc(OCCSc2nc(Cn3nnc4ccccc43)c(I)c(=O)[nH]2)cc1,inhibition at 10 µM,[1],35%
O=c1[nH]c(SCc2ccc([N+](=O)[O-])cc2)nc(Cc2ccccc2)c1I,inhibition,[1],inactive
O=c1[nH]c(SCc2ccc([N+](=O)[O-])cc2)nc(Cn2nnc3ccccc32)c1I,inhibition at 10 µM,[1],49%
Cc1cc(C)cc(Cc2nc(SCc3ccc(C#N)cc3)[nH]c(=O)c2I)c1,inhibition at 10 µM,[1],33%
COc1ccc(Cc2nc(SCc3ccc(I)cc3)[nH]c(=O)c2I)cc1OC,inhibition at 10 µM,[1],17%
O=c1[nH]c(SCCOc2ccc([N+](=O)[O-])cc2)nc(Cc2cc(F)cc(F)c2)c1I,inhibition at 10 µM,[1],9%
N#Cc1ccc(CSc2nc(Cc3ccccc3)c(I)c(=O)[nH]2)cc1,inhibition at 10 µM,[1],63%
COc1cc(CSc2nc(Cn3nnc4ccccc43)c(I)c(=O)[nH]2)cc(OC)c1,selectivity ratio,[2],12
same,EC50,[3],12.2 µM
same,CC50 at 168 h,[4],146 µM
same,inhibition at 10 µM,[1],59%
N#Cc1ccc(CSc2nc(Cn3nnc4ccccc43)c(I)c(=O)[nH]2)cc1,inhibition at 10 µM,[1],27%
COc1ccc(Cc2nc(SCc3ccc([N+](=O)[O-])cc3)[nH]c(=O)c2I)cc1OC,selectivity ratio,[2],330
same,EC50,[3],0.376 µM
same,CC50 at 168 h,[4],124 µM
same,inhibition at 10 µM,[1],81%
same,Activity,[5],Active
same,Activity,[6],Active
same,Activity,[7],Active
same,Activity,[8],inactive
same,Activity,[9],Dose-dependent effect
COc1ccc(Cc2nc(SC3C=CCCC3)[nH]c(=O)c2I)cc1OC (configuration not stated),inhibition at 10 µM,[1],52%
COc1ccc(Cc2nc(SCc3ccc(C#N)cc3)[nH]c(=O)c2I)cc1OC,selectivity ratio,[2],19
same,EC50,[3],4.84 µM
same,CC50 at 168 h,[4],92 µM
same,inhibition at 10 µM,[1],67%
COc1ccc(Cc2nc(SCc3ccccc3[N+](=O)[O-])[nH]c(=O)c2I)cc1OC,inhibition at 10 µM,[1],62%
O=c1[nH]c(SCc2ccc([N+](=O)[O-])cc2)nc(Cc2cc(F)cc(F)c2)c1I,inhibition at 10 µM,[1],47%
